How the values were obtained:
KRAS G12D = KRAS G12D (Homo sapiens, UniProt P01116, G12D); assay: GDP-GTP exchange assay (bodipy-GDP/GppNHp, SOS1), KRAS G12D; format: biochemical; conditions: 2.5 nM bodipy-loaded KRAS G12D, 4 h pre-incubation, 2 h reaction with GppNHp and SOS1; for certain compounds the most potent isomer is quoted; read-out: KRAS_G12D exchange assay IC50
In short: (§1)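 Bodipy-GDP-loaded KRAS G12D or G12V (2.5 nM) pre-incubated 4 h at r.t. with inhibitor in Hepes pH 7.5, 10 mM MgCl2, then exchange started with 500 μM GppNHp and 150 nM SOS1 (final); 2 h (G12D) or 3 h (G12V). Fluorescence at 485/520 nm; IC50 from four-parameter logistic fit.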

KRAS G12V = KRAS G12V (Homo sapiens, UniProt P01116, G12V); assay: GDP-GTP exchange assay (bodipy-GDP/GppNHp, SOS1), KRAS G12V; format: biochemical; conditions: 2.5 nM bodipy-loaded KRAS G12V, 3 h incubation after adding GppNHp-SOS1; for certain compounds the most potent isomer is quoted; read-out: KRAS_G12V exchange assay IC50
In short: as §1

Sequence of KRAS G12D (P01116 1-188 isoform P01116-2 G12D): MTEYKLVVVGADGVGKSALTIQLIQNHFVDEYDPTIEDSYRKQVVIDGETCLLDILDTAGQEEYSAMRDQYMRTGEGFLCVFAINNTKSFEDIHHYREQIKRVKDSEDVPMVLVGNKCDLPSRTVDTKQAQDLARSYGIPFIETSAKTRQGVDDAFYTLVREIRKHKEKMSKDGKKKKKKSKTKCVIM
Sequence of KRAS G12V (P01116 1-188 isoform P01116-2 G12V): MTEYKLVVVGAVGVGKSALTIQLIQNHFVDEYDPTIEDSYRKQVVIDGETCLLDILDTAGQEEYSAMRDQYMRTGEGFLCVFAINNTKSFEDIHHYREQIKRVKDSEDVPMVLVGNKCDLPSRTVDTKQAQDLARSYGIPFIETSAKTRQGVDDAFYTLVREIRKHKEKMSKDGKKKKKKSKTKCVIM

SMILES: COC(=O)N1[C@@H]2C[C@@H]([C@@H](OC(F)(F)F)C2)[C@@H]1c1cc2c(C)nc3c(F)c(-c4cccc(Cl)c4Cl)c(CCC#N)cc3c2n1[C@H]1[C@H]2CN[C@@H]1C2 (atropisomer, axis not shown; (Ra)) [Example 40, Methyl (1R,3R,4R,5S)-3-((Ra)-1-((1R,4R,5S)-2-azabicyclo[2.1.1]hexan-5-yl)-8-(2-cyanoethyl)-7-(2,3-dichlorophenyl)-6-fluoro-4-methyl-1H-pyrrolo[3,2-c]quinolin-2-yl)-5-(trifluoromethoxy)-2-azabicyclo[2.2.1]heptane-2-carboxylate]
- IC50 (KRAS G12D): ≤ 100 nM
- IC50 (KRAS G12V): ≤ 100 nM

SMILES: CN(C)C(=O)c1ccc(-c2nc3c(F)c(-c4cccc(Cl)c4Cl)c(CCC#N)cc3c3c2cc([C@H]2[C@@H]4CC[C@@H](C4)N2C(=O)C2CC2)n3[C@H]2[C@H]3CN[C@@H]2C3)cn1 [Example 12, 5-(1-((1R,4R,5S)-2-azabicyclo[2.1.1]hexan-5-yl)-8-(2-cyanoethyl)-2-((1S,3R,4R)-2-(cyclopropanecarbonyl)-2-azabicyclo[2.2.1]heptan-3-yl)-7-(2,3-dichlorophenyl)-6-fluoro-1H-pyrrolo[3,2-c]quinolin-4-yl)-N,N-dimethylpicolinamide]
- IC50 (KRAS G12D): ≤ 100 nM
- IC50 (KRAS G12V): ≤ 100 nM

SMILES: C[C@@H](O)c1nc2c(F)c(-c3cccc(Cl)c3Cl)c(CCC#N)cc2c2c1cc([C@H]1[C@H]3C[C@H](C[C@@H]3F)N1C(=O)C1(F)CC1)n2[C@H]1[C@H]2CN[C@@H]1C2 (atropisomer, axis not shown) [Example 32, 3-((R)-1-((1R,4R,5S)-2-azabicyclo[2.1.1]hexan-5-yl)-7-(2,3-dichlorophenyl)-6-fluoro-2-((1R,3R,4R,5S)-5-fluoro-2-(1-fluorocyclopropane-1-carbonyl)-2-azabicyclo[2.2.1]heptan-3-yl)-4-((R)-1-hydroxyethyl)-1H-pyrrolo[3,2-c]quinolin-8-yl)propanenitrile]
- IC50 (KRAS G12D): ≤ 100 nM
- IC50 (KRAS G12V): ≤ 100 nM
